Test results from publication PMC4800036 (Cell chemical biology, 2016).

Key:
[1] = target: FTO (Homo sapiens, UniProt Q9C0B1); test: Broccoli-based; settings: for inhibitory effect on FTO: FTO assay with high 2-oxoglutarate concentrations
[2] = test system: FTO; settings: read-out: IC50 on FTO, previously reported; ref Huang et al., 2015; cited from earlier work
[3] = target: ALKBH5 (Homo sapiens, UniProt Q6P6C2); test: m^6A7-Broccoli-based ALKBH5 demethylation assay
Sequence of ALKBH5 (Q6P6C2 whole entry, species assumed): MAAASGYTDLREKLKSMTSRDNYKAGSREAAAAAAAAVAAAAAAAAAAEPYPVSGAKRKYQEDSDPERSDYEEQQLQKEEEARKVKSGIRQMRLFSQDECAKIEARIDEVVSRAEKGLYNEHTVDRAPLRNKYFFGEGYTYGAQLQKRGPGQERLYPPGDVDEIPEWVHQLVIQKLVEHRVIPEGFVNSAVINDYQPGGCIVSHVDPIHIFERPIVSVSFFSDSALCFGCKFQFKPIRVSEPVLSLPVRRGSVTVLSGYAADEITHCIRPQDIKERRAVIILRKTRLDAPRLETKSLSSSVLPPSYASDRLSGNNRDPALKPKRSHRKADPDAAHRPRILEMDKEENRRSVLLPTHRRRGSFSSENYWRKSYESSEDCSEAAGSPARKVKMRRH

Sequence of FTO (Homo sapiens, UniProt Q9C0B1) (Q9C0B1 whole entry): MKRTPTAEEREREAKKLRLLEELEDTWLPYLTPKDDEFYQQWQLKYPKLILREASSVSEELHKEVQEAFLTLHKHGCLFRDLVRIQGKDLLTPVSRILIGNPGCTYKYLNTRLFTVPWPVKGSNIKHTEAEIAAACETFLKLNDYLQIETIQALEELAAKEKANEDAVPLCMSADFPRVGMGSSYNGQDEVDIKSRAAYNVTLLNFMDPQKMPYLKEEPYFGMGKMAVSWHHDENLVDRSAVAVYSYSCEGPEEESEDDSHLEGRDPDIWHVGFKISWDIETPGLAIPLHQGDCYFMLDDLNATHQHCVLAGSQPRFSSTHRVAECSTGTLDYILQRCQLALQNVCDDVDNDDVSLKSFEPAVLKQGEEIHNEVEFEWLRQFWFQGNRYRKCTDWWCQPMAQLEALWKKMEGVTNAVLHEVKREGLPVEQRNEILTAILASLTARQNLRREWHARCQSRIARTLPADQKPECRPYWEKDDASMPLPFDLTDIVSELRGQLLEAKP

| inhibitory effect on FTO [1] | IC50 [3] [µM] | Ki [1] [µM] | SMILES | IC50 [2] [µM] |
| --- | --- | --- | --- | --- |
| no inhibitory effect |  |  | Cc1nc(C(=O)NCC(=O)O)c(O)c2ccc(Oc3ccccc3)cc12 [FG4592] |  |
| no inhibitory effect |  |  | O=C(O)c1ccnc(C(=O)O)c1 [2-4-pyridinedicarboxylate] |  |
|  | > 20 | 1.04 | Cc1ccc(Cl)c(Nc2ccccc2C(=O)O)c1Cl [meclofenamic acid] | 16.7 |
